Our source for the inhibition, Relative potency and IC50 values is ChEMBL document CHEMBL1134061, “Synthesis and biological evaluations of condensed pyridine and condensed pyrimidine-based HMG-CoA reductase inhibitors” (Bioorg Med Chem Lett, 2001).

Assay [1] concerns the target T1, 3-hydroxy-3-methylglutaryl-coenzyme A reductase (Rattus norvegicus) (UniProt P51639).
T1 sequence (whole entry): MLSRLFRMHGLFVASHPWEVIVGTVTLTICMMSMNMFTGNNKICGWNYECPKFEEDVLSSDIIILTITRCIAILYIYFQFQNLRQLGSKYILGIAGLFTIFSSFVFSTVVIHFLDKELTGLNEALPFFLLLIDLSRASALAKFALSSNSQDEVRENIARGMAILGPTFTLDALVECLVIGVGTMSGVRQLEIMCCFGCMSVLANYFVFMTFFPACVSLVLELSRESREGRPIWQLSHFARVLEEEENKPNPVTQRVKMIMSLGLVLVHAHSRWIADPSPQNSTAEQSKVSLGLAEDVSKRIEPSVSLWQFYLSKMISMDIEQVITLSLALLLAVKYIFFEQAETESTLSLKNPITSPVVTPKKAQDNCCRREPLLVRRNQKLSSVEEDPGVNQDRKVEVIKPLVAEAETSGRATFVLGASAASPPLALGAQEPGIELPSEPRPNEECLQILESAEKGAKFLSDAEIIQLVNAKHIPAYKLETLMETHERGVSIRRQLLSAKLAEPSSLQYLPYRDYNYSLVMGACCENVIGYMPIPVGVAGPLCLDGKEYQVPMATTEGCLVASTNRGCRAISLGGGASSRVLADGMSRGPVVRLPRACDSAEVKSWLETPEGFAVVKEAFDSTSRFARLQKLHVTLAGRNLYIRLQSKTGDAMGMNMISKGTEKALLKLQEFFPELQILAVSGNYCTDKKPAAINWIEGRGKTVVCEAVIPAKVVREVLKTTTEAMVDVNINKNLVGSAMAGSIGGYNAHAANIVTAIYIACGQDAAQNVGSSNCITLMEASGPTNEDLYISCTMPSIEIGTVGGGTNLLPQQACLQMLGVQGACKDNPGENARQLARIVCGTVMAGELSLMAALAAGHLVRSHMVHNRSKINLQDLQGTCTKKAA
Briefly: In vivo hepatic cholesterol synthesis inhibitory activity in male Sprague-Dawley rat after oral administration at a concentration of 0.2 mg/kg. It is filed as functional, organism-based. Further details: dose 0.2 mg/kg.

The target in assay [2] is T1, 3-hydroxy-3-methylglutaryl-coenzyme A reductase (Rattus norvegicus). In words: In vivo hepatic cholesterol synthesis inhibitory activity in male Sprague-Dawley rat after oral administration at a concentration of 2.0 mg/kg. The assay is classed as functional, organism-based. Further details: dose 2 mg/kg.
The target of assay [3] is T2, 3-hydroxy-3-methylglutaryl-coenzyme A reductase (Homo sapiens) (UniProt P04035).
T2 sequence (whole entry): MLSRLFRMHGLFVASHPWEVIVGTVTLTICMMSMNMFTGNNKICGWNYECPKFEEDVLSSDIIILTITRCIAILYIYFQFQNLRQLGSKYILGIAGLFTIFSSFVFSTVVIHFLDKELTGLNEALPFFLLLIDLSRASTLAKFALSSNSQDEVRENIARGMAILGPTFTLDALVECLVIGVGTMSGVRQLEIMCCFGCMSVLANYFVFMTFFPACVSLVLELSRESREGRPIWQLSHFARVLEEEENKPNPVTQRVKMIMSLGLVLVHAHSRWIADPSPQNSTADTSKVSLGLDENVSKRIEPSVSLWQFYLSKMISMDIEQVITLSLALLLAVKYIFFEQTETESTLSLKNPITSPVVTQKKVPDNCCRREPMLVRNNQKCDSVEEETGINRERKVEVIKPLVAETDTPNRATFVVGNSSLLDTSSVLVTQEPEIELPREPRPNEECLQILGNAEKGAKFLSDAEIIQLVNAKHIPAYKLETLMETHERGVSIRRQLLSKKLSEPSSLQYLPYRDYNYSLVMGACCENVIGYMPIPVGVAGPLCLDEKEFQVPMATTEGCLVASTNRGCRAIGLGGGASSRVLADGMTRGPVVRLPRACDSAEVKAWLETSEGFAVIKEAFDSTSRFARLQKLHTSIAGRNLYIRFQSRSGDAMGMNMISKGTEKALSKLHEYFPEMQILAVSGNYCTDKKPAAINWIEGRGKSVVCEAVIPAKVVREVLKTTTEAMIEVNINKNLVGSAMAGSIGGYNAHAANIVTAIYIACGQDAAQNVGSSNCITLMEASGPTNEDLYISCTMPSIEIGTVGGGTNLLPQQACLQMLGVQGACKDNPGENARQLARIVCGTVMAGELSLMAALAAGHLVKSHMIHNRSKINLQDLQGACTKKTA
Briefly: In vitro HMG-CoA reductase inhibitory activity required to inhibit cellular steroidgenesis in Hep G2 cells (human hepatoma cell line) with pravastatin as reference compound. It is filed as cell-based. The settings on record: HepG2.

The target of assay [4] is T1, 3-hydroxy-3-methylglutaryl-coenzyme A reductase (Rattus norvegicus). Briefly: In vitro rat HMG-CoA reductase inhibitory activity required to inhibit sterol synthesis in cell free system with pravastatin as reference compound.
Assay [5] addresses T3, 3-hydroxy-3-methylglutaryl-coenzyme A reductase (Rattus norvegicus, UniProt P51639).
T3 sequence (P51639 whole entry): T1 sequence (whole entry)
In words: In vitro HMG-CoA reductase inhibitory activity to inhibit sterol synthesis in cell free system in rat.

In the case of `CC(C)c1nc2c(c(-c3ccccc3)nn2C)c(-c2ccc(F)cc2)c1/C=C/[C@@H](O)C[C@@H](O)CC(=O)O`, the figures for the inhibition in assay [1] and in assay [2] were 37% and 71.1%, respectively. In addition, the figures for the Relative potency in assay [3] and in assay [4] were 6 and 21, respectively.

Take `CC(C)c1nc2c(c(C3CC3)nn2C)c(-c2ccc(F)cc2)c1/C=C/[C@@H](O)C[C@@H](O)CC(=O)O`: the figures for the inhibition in assay [1] and in assay [2] were 42.9% and 71.3%, respectively. Further, the Relative potency in assay [3] came out at 1; in assay [4], 42.

On to `CC(C)c1nc2cc(-c3ccccc3)nn2c(-c2ccc(F)cc2)c1/C=C/[C@@H](O)C[C@@H](O)CC(=O)O`, for which the inhibition (usually the drop in the measured response relative to a control, in per cent) in assay [1] is -1.4%; in assay [2], 24.1%. Moreover, the Relative potency came to 3 in assay [3] and 12 in assay [4].

In the case of `CC[C@H](C)C(=O)O[C@H]1C[C@H](O)C=C2C=C[C@H](C)[C@H](CC[C@@H](O)C[C@@H](O)CC(=O)O)[C@H]21` [PRAVASTATIN SODIUM], the inhibition in assay [1] was determined as 35.4%; in assay [2], 27.8%. Besides, the IC50 (in general, the point on the concentration scale where inhibition reaches its midpoint) in assay [5] was determined as 4.2 nM.

With `Cc1nn(C)c2nc(C3CC3)c(/C=C/[C@@H](O)C[C@@H](O)CC(=O)O)c(-c3ccc(F)cc3)c12`, the inhibition in assay [1] stood at 35.5%; in assay [2], 74.3%. The Relative potency in assay [3] is 118; in assay [4], 228.

For `CC(C)c1nc2onc(-c3ccccc3)c2c(-c2ccc(F)cc2)c1/C=C/[C@@H](O)C[C@@H](O)CC(=O)O`, the results for the inhibition in assay [1] and in assay [2] were 33.7% and 52.3%, respectively. For the same molecule, the Relative potency in assay [3] is 1; in assay [4], 83.

With `O=C(O)C[C@H](O)C[C@H](O)/C=C/c1c(C2CC2)nc2sccc2c1-c1ccc(F)cc1`, the inhibition in assay [1] was 38.1%; in assay [2], 70.6%. The results for the Relative potency in assay [3] and in assay [4] were 60 and 229, respectively.

In the case of `Cc1nn(-c2ccccc2)c2nc(C(C)C)c(/C=C/[C@@H](O)C[C@@H](O)CC(=O)O)c(-c3ccc(F)cc3)c12`, the values for the inhibition in assay [1] and in assay [2] were 3.3% and 19.9%, respectively. Besides, the Relative potency in assay [3] stood at 1; in assay [4] it was 264.
